From patent US20210156846A1, “MICROFLUIDIC PLATFORM FOR TARGET AND BIOMARKER DISCOVERY FOR NON-ALCOHOLIC FATTY LIVER DISEASE” (Javelin Biotech, Inc., priority 2019, published 2021)

Test system: liver-adipose crosstalk MPSs
Assay: Disease severity in NAFLD liver-adipose crosstalk MPS after treatment
Format: cell-based, human
Conditions: MHM-induced NAFLD liver-adipose crosstalk MPS; no data shown
Protocol: The disease modifying potential of targets is evaluated using one or both of large and small molecules and functional genomics tools, such as CRISPR. For example, large molecules can include ligand antagonists, Humira (adalimumab) blocks, and TNF-α. Healthy and NAFLD liver-adipose MPSs are established previously described. Following disease induction, the liver-adipose MPSs are treated with small molecules (alone and in combination) or CRISPR short guide RNAs (sgRNAs) that modulate the activity or expression of disease-relevant signaling pathways (e.g. CCR2-5, FXR, PPARγ, PPARβ/δ, and PPARγ) as previously described in relation to FIG. 4. The dosing regimen are optimized using the efficacy data generated using the liver and adipose spheroids previously described. The disease-modifying potential of the therapeutic treatment regimens in the liver-adipose crosstalk MPS 120 are determined using phenotypic (e.g., IR, steatosis, steatohepatitis, and fibrosis) and biomarker (apoptosis, hepatokine, adipokine, cytokine) readouts.
In the liver-adipose MPS 120, MHM induces a NAFLD phenotype in the liver (e.g., oxidative stress, steatosis, and fibrosis) and adipose tissue (e.g., steatosis) compared to MPSs cultured in healthy medium. Clinical biomarkers of NAFLD (e.g., AST, ALT, cytokeratin-18) are elevated in diseased systems compared to healthy systems. […]

CCCCOCCOc1ccc(-c2ccc3c(c2)/C=C(/C(=O)Nc2ccc([S@@+]([O-])Cc4cncn4CCC)cc2)CCCN3CC(C)C)cc1 [cenicriviroc]
severity of the steatosis, fibrosis, and insulin resistance: reduce the severity

CSc1ccc(C(=O)/C=C/c2cc(C)c(OC(C)(C)C(=O)O)c(C)c2)cc1 [elafibranor]
severity of the steatosis, fibrosis, and insulin resistance: reduce the severity
